Assay [1] concerns S. mansoni. Put plainly: antischistosomal activity in Cebus apella monkeys treated orally. Format: in vivo, S. mansoni (host: Cebus apella monkeys). The conditions noted are these: four equal doses over two days, oral.
The test system of assay [2] is S. mansoni. Put plainly: antischistosomal activity in mice (live worm burden, single oral dose). Particulars: Schistosoma mansoni, read-out: % Reduction Live Worm Burden. Format: in vivo, S. mansoni (host: CD1 white female mice). As for the experimental part:
Tests were conducted to determine the antischistosomal activity in mice and monkeys. The results of the mice tests are reported in Tables 1 to 4 along with the chemical identifications of the compounds synthesized and tested.
The mice tests were conducted as follows:
A. Preinfection Procedures: Purina Laboratory chow (Ralston-Purina) and water were given ad libitum. All mice were housed in hanging stainless steel cages, without bedding, five per cage. They were kept in a ward with an ambient temperature of 75° F. and a relative humidity of 50-55%. Therapeutic treatment was given on Day 40 post-infection.
B. Experimental Procedures: CD1 white female mice were exposed by the tail immersion method for 30 minutes to 80 individually counted S. mansoni cercariae (WRAIR laboratory strain). The cercariae were obtained from pools of no less than 25 Biophalaria glabrata snails. Each experiment consisted of 118 mice divided into infected/water treated and infected/vehicle-treated controls, and infected/drug-treated groups (two dose levels) for six compounds. Groups of 12 mice each were treated with a compound synthesized and provided by the Warner-Lambert Company, Ann Arbor, Mich. at two dose levels. At the same time, five mice were sacrificed to establish worm burdens as infection controls. Three weeks after treatment, all remaining mice were sacrificed and perfused. Gross pathology (liver and intestines) was noted and graded (0 to +3). Worm burdens were determined and the sex of the worms recorded. Following perfusions the liver and intestines were removed and examined for the presence of […] or dead worms. […] Drugs were administered orally in Emulphor EL.
C. Drug Treatment: Treatment consisted of a single oral dose. Each drug was give initially at two dose levels, 40 mg/kg and 125 mg/kg, SID×1.
D. Criteria Used to Evaluate Therapeutic Effectiveness:
Evaluation of activity was determined by examination of the animals at 23 to 28 days after treatment. The schistosomes remaining alive after treatment were counted in the perfusates of the hepatic portal system and in press preparation of the livers. In the same preparations, the relative numbers of dead and/or encapsulated (i.e., worms may or may not be dead) parasites and the relative degree of pathology were ascertained. The efficacy of each treatment was that percentage of the control infection represented by the difference between numbers of parasites recovered from control (H2 O+vehicle) and treated animals. Thus, % efficacy is: [formula]

The mark [3] stands for this setting: 40 mg/kg, single oral dose, mice.
Setting [4] is: 125 mg/kg, single oral dose, mice.

Several values for one entry are separate records, joined by “and”; a condition that tells them apart may be missing. Equal values may be shown once. Read-outs that look alike come from different tables or passages of the source.

For the molecule `O=C(CN1CCN(c2ccc(CO)c(Cl)c2)CC1)c1ccc(Cl)c(Cl)c1Cl` [drawing 33], in assay [1] (200 mg/kg), the “% Reduction Live Worm Burden at Necropsy” value is 85% and 83%; the “Fecal Egg Count” value is 0. In assay [1] (400 mg/kg), the “% Reduction Live Worm Burden at Necropsy” value is 99% and 98%; the “Fecal Egg Count” value was 0. Also, the “Total Normal Worms at Necropsy” value in assay [1] (two values given, not assigned to the doses) came to 0.
`O=C(CN1CCN(c2ccc(CO)c(Cl)c2)CC1)c1cccs1` [compound 45]: the inhibition in vivo at 40 mg/kg in assay [2] (setting [3]) worked out at 10%. In addition, in assay [2] (setting [4]), the inhibition in vivo at 125 mg/kg was 68%.
`O=C(CN1CCN(c2ccc(CO)c(Cl)c2)CC1)c1ccc(Cl)cc1O` [compound 18]: the inhibition in vivo at 40 mg/kg in assay [2] (setting [3]) came out at 5%. In addition, in assay [2] (160 mg/kg, single oral dose, mice (footnote, 125 mg/kg column)), the inhibition in vivo at 160 mg/kg is 26%.
Regarding `O=C(CCN1CCN(c2ccc(CO)c(Cl)c2)CC1)c1ccc(Br)cc1` [compound 42], the inhibition in vivo at 20 mg/kg in assay [2] (single oral dose, mice) turned out to be 82%. Also, the inhibition in vivo at 40 mg/kg in assay [2] (setting [3]) is 84%. The inhibition in vivo at 125 mg/kg in assay [2] (setting [4]) came to 98%.
As for `Cc1cc(C)c(C(=O)CN2CCN(c3ccc(CO)c(Cl)c3)CC2)c(C)c1` [compound 21], the inhibition in vivo at 40 mg/kg in assay [2] (setting [3]) was 27%. Also, the inhibition in vivo at 125 mg/kg in assay [2] (setting [4]) amounted to 78%.
On the same counts, the results for `O=C(CN1CCN(c2ccc(CO)c(Cl)c2)CC1)c1ccc(C(=O)Oc2ccccc2)cc1` [compound 7] are -20% and 0%.
On the same counts, the results for `O=C(CN1CCN(c2ccc(CO)c(Cl)c2)CC1)c1ccc(C(F)(F)F)cc1` [compound 15] are 43% and 79%.
The like results for `C[S+]([O-])c1ccc(C(=O)CCN2CCN(c3ccc(CO)c(Cl)c3)CC2)cc1` (stereo not drawn) [compound 38] were, in that order, 73% and 91%.
Consider `O=C(CCN1CCN(c2ccc(CO)c(Cl)c2)CC1)c1ccccc1` [compound 29], for which the inhibition in vivo at 40 mg/kg in assay [2] (setting [3]) was found to be 69%. Besides, in assay [2] (setting [4]), the inhibition in vivo at 125 mg/kg worked out at 89%.
Turning to `O=C(CCN1CCN(c2ccc(CO)c(Cl)c2)CC1)c1ccc2ccccc2c1` [compound 36], in assay [2] (single oral dose, mice), the inhibition in vivo at 20 mg/kg worked out at 75%. Also, the inhibition in vivo at 40 mg/kg in assay [2] (setting [3]) came out at 82%. The inhibition in vivo at 125 mg/kg in assay [2] (setting [4]) was determined as 95%.
On to `O=C(CN1CCN(c2ccc(CO)c(Cl)c2)CC1)c1cccc([N+](=O)[O-])c1` [Cpd. 12, 2-[4-[3-chloro-4-(hydroxymethyl)phenyl]-1-piperazinyl]-1(3-nitrophenyl)ethanone], for which the inhibition in vivo at 40 mg/kg in assay [2] (setting [3]) was determined as 31%. Further, the inhibition in vivo at 125 mg/kg in assay [2] (setting [4]) came out at 73%.
In the case of `O=C(CCCN1CCN(c2ccc(CO)c(Cl)c2)CC1)c1cccs1` [Cpd. 58, 4-[4-[3-Chloro-4-(hydroxymethyl)phenyl]-1-piperazinyl]-1-(2-thienyl)-1-butanone], the inhibition in vivo at 40 mg/kg in assay [2] (setting [3]) was determined as 20%. Besides, the inhibition in vivo at 125 mg/kg in assay [2] (setting [4]) worked out at 77%.
Turning to `O=C(CN1CCN(c2ccc(CO)c(Cl)c2)CC1)c1cccc(Cl)c1` [compound 27], the inhibition in vivo at 40 mg/kg in assay [2] (setting [3]) is 64%. The inhibition in vivo at 125 mg/kg in assay [2] (setting [4]) amounted to 83%.
On to `O=C1c2ccccc2CCC1N1CCN(c2ccc(CO)c(Cl)c2)CC1` (stereo not drawn) [compound 22], for which, in assay [2], the inhibition in vivo at 40 mg/kg came out at 73% and the inhibition in vivo at 125 mg/kg was determined as 87%.
For `O=C(CN1CCN(c2ccc(CO)c(Cl)c2)CC1)c1ccc(Cl)cc1` [Cpd. 1], in assay [2] (setting [3]), the inhibition in vivo at 40 mg/kg worked out at 42%. For the same molecule, in assay [2] (setting [4]), the inhibition in vivo at 125 mg/kg was 67%.
The like results for `O=C(CN1CCN(c2ccc(CO)c(Cl)c2)CC1)c1ccc([N+](=O)[O-])cc1` [Cpd. 5] were, in that order, 74% and 98%.
As to `O=C(CCN1CCN(c2ccc(CO)c(Cl)c2)CC1)c1ccc(Cl)c(Cl)c1Cl` [compound 41], the inhibition in vivo at 20 mg/kg in assay [2] (single oral dose, mice) amounted to 82%. Also, the inhibition in vivo at 40 mg/kg in assay [2] (setting [3]) stood at 83%. The inhibition in vivo at 125 mg/kg in assay [2] (setting [4]) turned out to be 96%.
In the case of `O=C(CN1CCN(c2ccc(CO)c(Cl)c2)CC1)c1cc(Cl)sc1Cl` [compound 54], the inhibition in vivo at 40 mg/kg in assay [2] (setting [3]) is 69%. Moreover, in assay [2] (setting [4]), the inhibition in vivo at 125 mg/kg came to 83%.
